Data taken from US20210386738A1, “COMBINATION OF PRMT5 INHIBITORS AND BCL-2 INHIBITORS” (GLAXOSMITHKLINE INTELLECTUAL PROPERTY DEVELOPMENT LIMITED, priority 2018, published 2021).

Key:
Format in all cases: cell-based
lymphoma cell line DB = assay: Standard 6-day growth-death assay, DB; details: single agent or fixed 1:1 combination; for EC50 / IC50: 144 h; for EC50: average of n=2, read-out: dEC50; for IC50: average of n=2, read-out: gIC50; for Ymin-T0 / gIC100: average of n=2
Protocol: (§1) The majority cell lines were obtained from GSK BioCat group, American Type Culture Collection (ATCC), or the Deutsche Sammlung von Mikroorganismen and Zellbulturen (DSMZ). All cell lines were maintained in growth medium in T75 cm^2 flasks, incubated at 37° C. with 5% CO2 and split every 3 to 4 days. Growth media conditions and cell line information are detailed in Table 1. Cells were counted using the Vi-Cell Analyzer (Beckman Coulter ViCell) to obtain viable cell counts.
(§2) Optimal cell seeding density was determined for all cell lines by monitoring proliferation over a range of seeding densities in 384-well format and identifying the seeding density at which cells grew logarithmically throughout six days. 50 uL of cells per well were plated in 384-well plates at the optimal seeding density in preferred supplemented culture media. Three plates were prepared per cell line and incubated overnight at 37° C. in 5% CO2.
(§3) In these studies, lymphoma cell lines were treated with PRMT5 inhibitor, compound A and BCL-2 targeted inhibitor, ABT-199 single agent or in combination using a fixed 1:1 ratio of each inhibitor over a 20-point titration. For compound A single and fixed 1:1 ratio combination with ABT-199 cell proliferation assay, cells were treated in duplicate with a 20-point, two-fold dilution series of Compound A, ABT-199 (≥14 μM top dose) single or combo treatment, and ≤0.15% DMSO final concentration. Plates were incubated for six days at the conditions described above. Cell growth was measured using CellTiter-Glo (Promega) and luminescence signal was detected with a BioTek Synergy Neo microplate reader. A plate of untreated cells was read at the time of compound/biologic addition to determine the T0 value representing the starting number of cells. Data were fit with a four-parameter equation to generate a concentration response curve using Assay Client software.
(§4) Results were background corrected by subtraction of values from wells containing no cells, expressed as a percentage of the T0 value (value at time=0), and plotted against compound concentration. The T0 value was normalized to 100% and represents the number of cells present at the time of compound addition. The cellular response was determined for each compound using a 4- or 6-parameter curve fit of cell viability against concentration using Assay Client software. Growth IC50 (gIC50) values correspond to the concentration intersecting the mid-point of the growth window (between DMSO and T0 values). Growth IC100 (gIC100) values correspond to the concentration at which 100% growth inhibition is achieved, based on the growth window. The Ymin−T0 value, a measure of net population cell growth or death, is calculated by subtracting the T0 value (100%) from the Ymin value (%) that is determined from the fit of the concentration response curve. Death EC50 (dEC50) values correspond to the concentration at which 50% net cell death is observed.
(§5) Individual curves were quality checked for three criteria: outlier data points, cell growth (population doubling ≥1.5), and proper curve fitting. […] Individual curves were QC checked for outlier data points, cell growth (population doubling ≥1.5), and proper curve fitting. Obvious outlier data points were omitted only as needed to ensure proper curve fit.
(§6) For fixed ratio screening, combination activity was assessed by the fold change in gIC50 compared to the 2 single agent curves by dividing the compound ratio as necessary. Combinations showing >3-fold and >5-fold change from single agent are described as below: • Fold changes ≥5 are considered to represent strong synergy. • Fold changes between 3.0 and 4.9 are considered to represent weak synergy. • Fold changes <3 are considered to represent no synergy.

[1] = tested on: lymphoma cell line SU-DHL-4; assay: Standard 6-day growth-death assay, SU-DHL-4; details: single agent or fixed 1:1 combination; for EC50 / IC50: Homo sapiens, 144 h; for EC50: average of n=2, read-out: dEC50; for IC50: average of n=2, read-out: gIC50; for Ymin-T0 / gIC100: average of n=2
Protocol: as §1, §2, §3, §4, §5, §6

[2] = tested on: lymphoma cell line WSU-DLCL2; assay: Standard 6-day growth-death assay, WSU-DLCL2; details: single agent or fixed 1:1 combination; for EC50 / IC50: Homo sapiens, WSUDLCL2, 144 h; for EC50: average of n=2, read-out: dEC50; for IC50: average of n=2, read-out: gIC50; for Ymin-T0 / gIC100: average of n=2
Protocol: as §1, §2, §3, §4, §5, §6

[3] = tested on: lymphoma cell line WSU-FSCCL; assay: Standard 6-day growth-death assay, WSU-FSCCL; details: single agent or fixed 1:1 combination; for EC50 / IC50: 144 h; for EC50: average of n=2, read-out: dEC50; for IC50: average of n=2, read-out: gIC50; for Ymin-T0 / gIC100: average of n=2
Protocol: as §1, §2, §3, §4, §5, §6

[4] = tested on: lymphoma cell line OCI-LY3; assay: Standard 6-day growth-death assay, OCI-LY3; details: single agent or fixed 1:1 combination; for EC50 / IC50: Homo sapiens, 144 h; for EC50: average of n=2, read-out: dEC50; for IC50: average of n=2, read-out: gIC50; for Ymin-T0 / gIC100: average of n=2
Protocol: as §1, §2, §3, §4, §5, §6

[5] = tested on: lymphoma cell line NU-DUL-1; assay: Standard 6-day growth-death assay, NU-DUL-1; details: single agent or fixed 1:1 combination; for IC50: average of n=2, read-out: gIC50; for Ymin-T0 / gIC100: average of n=2
Protocol: as §1, §2, §3, §4, §5, §6

[6] = tested on: lymphoma cell line JV-M2*; assay: Standard 6-day growth-death assay, JV-M2*; details: single agent or fixed 1:1 combination; for IC50: average of n=2, read-out: gIC50; for Ymin-T0 / gIC100: average of n=2
Protocol: as §1, §2, §3, §4, §5, §6

Z-138 = assay: Standard 6-day growth-death assay, Z-138 as control for Compound A; details: single agent or fixed 1:1 combination; for EC50 / IC50: Homo sapiens, 144 h; for EC50: average of n=2, read-out: dEC50; for IC50: average of n=2, read-out: gIC50; for Ymin-T0 / gIC100: average of n=2
Protocol: as §1, §2, §3, §4, §5, §6

Row | Structure (SMILES) | EC50 (lymphoma cell line DB) | IC50 (lymphoma cell line DB) | Ymin-T0 (lymphoma cell line DB) | gIC100 (lymphoma cell line DB) | EC50 [1] | IC50 [1] | Ymin-T0 [1] | gIC100 [1] | EC50 [2] | IC50 [2] | Ymin-T0 [2] | gIC100 [2] | EC50 [3] | IC50 [3] | Ymin-T0 [3] | gIC100 [3] | EC50 [4] | IC50 [4] | Ymin-T0 [4] | gIC100 [4] | further results
1 | CC1(C)CCC(CN2CCN(c3ccc(C(=O)NS(=O)(=O)c4ccc(NCC5CCOCC5)c([N+](=O)[O-])c4)c(Oc4cnc5[nH]ccc5c4)c3)CC2)=C(c2ccc(Cl)cc2)C1 [ABT-199, venetoclax, reference compound] | > 14700 nM | 2480 nM | 449% | > 14.7 µM | 13000 nM | 673 nM | 316% | 12.485 µM | > 14700 nM | 6920 nM | 3182% | > 14.7 µM | 14600 nM | 238 nM | −49% | 10.53 µM | 7510 nM | 1470 nM | −76% | 7.157 µM | IC50 ([5]; Homo sapiens, 144 h): 3020 nM; Ymin-T0 [5]: −45%; gIC100 [5]: 4.832 µM; EC50 ([6]; Homo sapiens, JVM-2, 144 h, average of n=2, read-out: dEC50): 9080 nM; IC50 ([6]; Homo sapiens, JVM-2, 144 h): 27 nM; Ymin-T0 [6]: −63%; gIC100 [6]: 1607 nM; EC50 (Z-138): 3120 nM; IC50 (Z-138): 14 nM; Ymin-T0 (Z-138): −78%; gIC100 (Z-138): 1119 nM
2 | O=C(NC[C@H](O)CN1CCc2ccccc2C1)c1ccnc(NC2CCC2)c1 [Compound A] | > 14700 nM | 862 nM | 194% | > 14.7 µM | > 14700 nM | 743 nM | 1083% | 14.663 µM | > 14700 nM | 1160 nM | 2474% | > 14.7 µM | > 14700 nM | 388 nM | 224% | 14.663 µM | > 14700 nM | 1960 nM | 488% | 14.663 µM | EC50 ([5]; Homo sapiens, 144 h, average of n=2, read-out: dEC50): > 14700 nM; IC50 ([5]; Homo sapiens, 144 h): 3730 nM; Ymin-T0 [5]: −11%; gIC100 [5]: 12.659 µM; IC50 ([6]; Homo sapiens, JVM-2, 144 h): 139 nM; Ymin-T0 [6]: −14%; gIC100 [6]: 2211 nM; EC50 (Z-138): 794 nM; IC50 (Z-138): 38 nM; Ymin-T0 (Z-138): −93.1%; gIC100 (Z-138): 453 nM
